Assays:
[1] = target: T1, Poly [ADP-ribose] polymerase tankyrase-2 (Homo sapiens, UniProt Q9H2K2); test: Inhibition of human TNKS2 (873 to 1162 residues) assessed as reduction in NAD+ consumption by fluorescence assay
T1 sequence (Q9H2K2 whole entry): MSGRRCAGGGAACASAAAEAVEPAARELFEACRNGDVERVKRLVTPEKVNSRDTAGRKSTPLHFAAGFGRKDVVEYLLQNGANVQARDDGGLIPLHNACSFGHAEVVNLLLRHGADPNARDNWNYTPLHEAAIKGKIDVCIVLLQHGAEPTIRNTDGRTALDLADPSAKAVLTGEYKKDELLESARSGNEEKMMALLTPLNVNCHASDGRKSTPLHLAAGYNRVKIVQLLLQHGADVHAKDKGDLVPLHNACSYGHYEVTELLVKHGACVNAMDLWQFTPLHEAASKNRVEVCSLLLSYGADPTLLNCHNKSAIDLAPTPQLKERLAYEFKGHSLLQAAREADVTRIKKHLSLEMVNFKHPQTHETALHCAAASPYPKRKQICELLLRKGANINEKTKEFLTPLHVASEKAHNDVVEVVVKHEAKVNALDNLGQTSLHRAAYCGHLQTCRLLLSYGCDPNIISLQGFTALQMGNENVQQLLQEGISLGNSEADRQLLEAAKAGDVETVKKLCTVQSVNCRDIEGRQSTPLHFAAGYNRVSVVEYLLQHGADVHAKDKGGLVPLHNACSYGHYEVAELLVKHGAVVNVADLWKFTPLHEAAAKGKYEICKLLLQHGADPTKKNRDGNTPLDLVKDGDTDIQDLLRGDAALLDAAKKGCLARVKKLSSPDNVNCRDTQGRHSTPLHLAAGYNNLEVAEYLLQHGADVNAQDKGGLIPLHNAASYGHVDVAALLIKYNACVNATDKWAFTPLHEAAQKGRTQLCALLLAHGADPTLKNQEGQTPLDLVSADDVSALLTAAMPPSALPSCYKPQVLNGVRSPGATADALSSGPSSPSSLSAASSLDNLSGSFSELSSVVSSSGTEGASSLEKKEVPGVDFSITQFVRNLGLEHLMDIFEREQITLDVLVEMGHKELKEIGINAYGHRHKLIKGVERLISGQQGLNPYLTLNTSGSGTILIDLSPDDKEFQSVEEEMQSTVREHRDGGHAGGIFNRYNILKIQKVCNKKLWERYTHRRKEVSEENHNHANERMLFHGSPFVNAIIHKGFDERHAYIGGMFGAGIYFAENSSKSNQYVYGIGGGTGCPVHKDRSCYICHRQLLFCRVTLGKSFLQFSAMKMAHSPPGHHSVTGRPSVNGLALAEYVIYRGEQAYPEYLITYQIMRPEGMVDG

[2] = target: T1, Poly [ADP-ribose] polymerase tankyrase-2; test: Inhibition of TNKS2 (unknown origin) transfected in human SW480 cells assessed as inhibition of Wnt3a-induced Wnt/beta-catenin signaling after 48 hrs by ST-luciferase reporter gene assay; assay type: cell-based
[3] = target: T1, Poly [ADP-ribose] polymerase tankyrase-2; test: Inhibition of TNKS2 (unknown origin) expressed in HEK293 cells assessed as inhibition of Wnt3a-induced Wnt/beta-catenin signaling after 24 hrs by luciferase reporter gene assay; assay type: cell-based

IC50 [1] | IC50 [2] | IC50 [3] | Structure (SMILES)
0.0098 µM | 0.41 µM | 0.2 µM | O=c1[nH]c2ccccc2n1[C@H]1C[C@H](c2nnc(-c3ccncn3)n2-c2ccccc2Cl)C1
0.33 µM | 1.49 µM | 0.12 µM | N#Cc1ccc2c(c1)[nH]c(=O)n2[C@H]1CC[C@H](c2nnc(-c3ccncn3)n2-c2ccccc2Cl)CC1
0.43 µM | 1.8 µM | 1.06 µM | O=c1[nH]c2ccccc2n1[C@H]1CC[C@H](c2nnc(-c3ccncn3)n2-c2ccccc2Cl)CC1

Reference: ChEMBL document CHEMBL4028904, “Discovery of a Novel Series of Tankyrase Inhibitors by a Hybridization Approach” (J Med Chem, 2017)
